The values below come from patent US12005039B2, “Methods and compositions relating to lipokines for treating metabolic disorders” (Joslin Diabetes Center, Inc., priority 2018, dated 2024).

The subject of data set [1] is differentiated C2C12 cells. Kind of data set: 14C-palmitic acid uptake and oxidation in C2C12 cells. Conditions: 1.5 μM, 15 min, vs vehicle. Type of data set: cell-based. As to the method: (§1) Cells were housed at 37° C., 95% humidity and 5% CO2. C2C12 myoblasts (ATCC; passages 4-7) were maintained in DMEM containing 10% FBS and 1% penicillin/streptomycin. Differentiation was induced by incubating the cells in DMEM containing 2% horse serum and 1% penicillin/streptomycin for 4 days. 3T3-LI adipocytes (ATCC; passages 4-7) were maintained in DMEM containing 10% FBS and 1% penicillin/streptomycin. Differentiation was induced by incubating the cells in DMEM containing […] and 1% penicillin/streptomycin with 400 ng/mL dexamethasone, 1 μg/mL insulin, and 115 μg/mL IBMX for days 0-2, 1 μg/mL insulin for days 2-4, and DMEM with 10% FBS and 1% penicillin/streptomycin only days 4-8.
(§2) mRNA levels of were measured by quantitative RT-PCR using primers (Table 4). Fatty acid uptake and oxidation into differentiated C2C12 muscle cells and 3T3L1 adipocytes measured using ^14C-labeled palmitic acid uptake and conversion of ^14C-labeled palmitic acid into CO2 as previously described (Townsend et al., 2013). Cells were treated with 1.5 μM 12,13-diHOME or methyl acetate vehicle for 15 min, similar to previous studies (Lynes et al., 2017). Oxygen consumption rates (OCR) were measured in starved (1 hour) C2C12 skeletal muscle cells treated with 1.5 μM 12,13-diHOME or methyl acetate vehicle for 15 min and OCR measured in 200 μM palmitate (Seahorse XF24) (Vernochet et al., 2012). […]

Data set [2] is described as follows: Respiratory exchange ratio and energy expenditure by CLAMS in acutely treated mice. Type of data set: in vivo. To be noted: wild-type mice, acute injection 1 μg/kg body weight i.v., CLAMS 4 h at room temperature, vs vehicle. How it is done: (§3) For measurements of respiratory exchange ratio (RER) and energy expenditure, mice were placed in metabolic chambers and injected intravenously with 1 μg/kg body weight 12,13-diHOME in 0.1% BSA PBS or vehicle and then monitored in the Comprehensive Laboratory Animals Monitoring System (CLAMS) at room temperature (22° C.) for 4 h.
A major source of energy for the working skeletal muscles during exercise comes from the uptake and oxidation of fatty acids. To determine whether 12,13-diHOME increases fatty acid uptake and oxidation in skeletal muscle in vivo, a mouse model. ACTA1Cre+/−Rosa(stop)Luc+/−mice, was generated that constitutively expressed a bioluminescent reporter in skeletal muscle. Mice were injected intravenously with FFA-SS-Luc, which is a fatty acid conjugated to luciferin (Henkin et al., 2012; Liao et al., 2005), in the presence of 12,13-diHOME or a vehicle control. […] These surprising in vivo data provided a potential physiological function for the exercise-induced increases in 12,13-diHOME.

Data set [3] deals with 3T3-L1 cells. Kind of data set: Oxygen consumption rate in 3T3-L1 cells. Type of data set: cell-based. To be noted: any condition (data not shown).
Data set [4] relates to mitochondrial and fatty acid oxidation genes. The experiment in a line: Expression of mitochondrial and fatty acid genes in tissues after acute injection (qRT-PCR). Conditions: mice injected in vivo. As to the method: (§4) mRNA levels of were measured by quantitative RT-PCR using primers (Table 4). Fatty acid uptake and oxidation into differentiated C2C12 muscle cells and 3T3L1 adipocytes measured using ^14C-labeled palmitic acid uptake and conversion of ^14C-labeled palmitic acid into CO2 as previously described (Townsend et al., 2013). Cells were treated with 1.5 μM 12,13-diHOME or methyl acetate vehicle for 15 min, similar to previous studies (Lynes et al., 2017). Oxygen consumption rates (OCR) were measured in starved (1 hour) C2C12 skeletal muscle cells treated with 1.5 μM 12,13-diHOME or methyl acetate vehicle for 15 min and OCR measured in 200 μM palmitate (Seahorse XF24) (Vernochet et al., 2012).
To identify a mechanism for increased fat utilization with 12,13-diHOME in skeletal muscle, assays were performed to determine the effects of injecting mice with 12,13-diHOME in vivo on the expression of mitochondrial and fatty acid oxidation genes in tibialis anterior muscle. […] However, there was no effect of 12,13-diHOME on mitochondrial or fatty acid oxidation genes in scWAT, pgWAT, liver, or BAT (FIGS. 6D-6G). These findings were consistent with the data showing that 12,13-diHOME regulates fatty acid metabolism in skeletal muscle.
A general note: Real-time PCR tracks product formation cycle by cycle.

For data set [5], the system named is isolated mouse soleus. Kind of data set: 3H-2-deoxyglucose uptake in isolated soleus muscle. Conditions: 300 ng/mL, 1 hour, vs vehicle. How it is done: (§5) For experiments measuring in vivo bioluminescent fatty acid uptake in skeletal muscle, ACTA1cre^+/− mice (Stock no. 006139) were bred with Rosa(stop)Luc^+/+ (Stock no. 005125) (Jackson Laboratory). Experiments measuring skeletal muscle glucose uptake in isolated skeletal muscle glucose uptake were performed in 6 week old, female, CD-1 IGS mice (Charles River Laboratories).
(§6) Isolated skeletal muscle glucose uptake was measured as previously described (Hayashi et al., 1998). Briefly, EDL or soleus muscles were dissected from 6 wk old female CD-1 mice, mounted, and incubated in Krebs-Ringer bicarbonate buffer (KRB) pH 7.4 containing 2 mM pyruvate for 60 min. Both EDL and soleus were incubated with vehicle or 300 ng/mL of 12,13-diHOME. Following treatment, glucose transport activity was measured for an additional 10 min.
(§7) Glucose is an important fuel source utilized during exercise. Accordingly, assays were performed to determine whether 12,13-diHOME increased glucose uptake in skeletal muscle. […] To confirm these findings, isolated mouse soleus and extensor digitorum longus (EDL) skeletal muscles were incubated with either vehicle or 12,13-diHOME for 1 hour.

Data set [6] relates to skeletal muscle. Kind of data set: In vivo bioluminescent fatty acid uptake in skeletal muscle (FFA-SS-Luc). To be noted: ACTA1Cre+/- Rosa(stop)Luc+/- mice. As to the method: as §5
For experiments measuring in vivo bioluminescent fatty acid uptake in skeletal muscle, ACTA1cre^+/− mice (Stock no. 006139) were bred with Rosa(stop)Luc^+/+ (Stock no. 005125)(Jackson Laboratory). Male offspring carrying the cre allele were injected retro-orbitally with 1 μg/kg body weight 12,13-diHOME in 0.1% BSA PBS or methyl acetate as a vehicle and all mice were co-injected with 2 μm FFA-SS-Luc (Intrace Medical). This dose is based on the circulating concentration of 12,13-diHOME in mice that are housed at room temperature, 3 ng/mL (10 nM). After an acute bout of exercise, 12,13-diHOME increased to 10-30 ng/mL (30-100 nM). This is considerably below the reported cytotoxic dose of 100 mg/kg body weight (Sisemore et al., 2001). Mice were anesthetized and imaged (IVIS Spectrum CT) using sequential 30 second exposures for 12 min.
A major source of energy for the working skeletal muscles during exercise comes from the uptake and oxidation of fatty acids. […]

The conditions of data set [7]: Sisemore et al., 2001; cited from earlier work.
Data set [8] relates to isolated mouse extensor digitorum longus (EDL). The experiment in a line: 3H-2-deoxyglucose uptake in isolated EDL muscle. To be noted: 300 ng/mL, 1 hour, vs vehicle. How it is done: as §5, §6, §7
For data set [9], the system named is 3T3-L1 cells. The experiment in a line: 14C-palmitic acid uptake and oxidation in 3T3-L1 cells. Type of data set: cell-based. To be noted: 1.5 μM, 15 min, vs vehicle. As to the method: as §1, §2
Data set [10] concerns differentiated C2C12 myotubes. Kind of data set: 3H-2-deoxyglucose uptake in C2C12 cells. Type of data set: cell-based. Conditions: 1.5 mM, 15 min, vs vehicle. As to the method:
2-deoxyglucose uptake in C2C12 cells was measured as previously described (Nedachi and Kanzaki, 2006). Briefly, differentiated C2C12 myotubes were serum starved for 3 h in DMEM before any treatment. Cells were incubated with 12,13-diHOME ([…]; 15 min) or insulin (100 nM; 15 min). After stimulation, cells were washed with buffer containing 140 mM NaCl, 20 mM Hepes-Na (pH 7.4), 5 mM KCl, 2.5 mM MgSO4, and 1.0 mM CaCl2. Glucose transport was determined by the addition of ^3H-2-deoxyglucose for glucose for 10 min on ice. Cells were washed with ice-cold saline solution and harvested in 0.05 N NaOH to determine net accumulation of [^3H]-2-deoxyglucose (Nedachi and Kanzaki, 2006).
as §7

Data set [11] in a line: RER by CLAMS in exercise-trained iBAT- mice treated with 12,13-diHOME. Type of data set: in vivo. To be noted: iBAT- mice exercise trained 3 weeks, acutely treated with 12,13-diHOME. How it is done: For iBAT-mice, mice were anesthetized using isofluorane. iBAT was surgically removed and the artery immediately cauterized. Sham mice underwent the same surgical procedure, but iBAT was not removed.
as §3
Therefore, an analysis of sham and iBAT-mice was performed to determine whether increased 12,13-diHOME with training regulated fat utilization in vivo. Sham and iBAT-mice were sedentary or exercise trained for 3 weeks and subsequently, the RER was measured in metabolic cages. […] In contrast, there was no effect of exercise training on RER in the iBAT-mice.

Data set [12] concerns C2C12 cells. The experiment in a line: Oxygen consumption rate (Seahorse XF24) in C2C12 cells. Conditions: 1.5 μM, 15 min, 200 μM palmitate, vs vehicle. Type of data set: cell-based. How it is done:
as §4
To determine if 12,13-diHOME regulated mitochondrial function in muscle, differentiated C2C12 myotubes were incubated with 12,13-diHOME and then analyzed for mitochondrial respiration. 12,13-diHOME incubation increased basal oxygen consumption rate (OCR) and respiratory capacity in C2C12 cells (FIGS. 4A and 4B).

On to `CCCCCC(O)C(O)C/C=C\CCCCCCCC(=O)O` (stereo not drawn) [12,13-diHOME, 12,13-dihydroxy-9Z-octadecenoic acid], for which the results for the “fatty acid oxidation (14C palmitic acid to CO2)” value in [1] and in data set [9] were “significant increase” and “did not increase”, respectively. The “fatty acid uptake (14C palmitic acid)” value in data set [1] was “significant increase”; in [9], “did not increase”. Besides, the energy expenditure entry in data set [2] is “independent of any change in energy expenditure”. For the same molecule, the “respiratory exchange ratio (RER)” value in data set [2] is given as “decreased”. Further, the OCR entry in data set [3] is listed as “did not increase OCR under any condition”. For the same molecule, the “expression of mitochondrial or fatty acid oxidation genes” value in data set [4] (BAT), in [4] (liver), in data set [4] (pgWAT) and in data set [4] (scWAT) was “no effect” in each case. For the same molecule, the “expression of mitochondrial and fatty acid genes” value in data set [4] (heart) was “increased expression of Nrf1 and Nrf2”; in data set [4] (tibialis anterior muscle), “increased expression of several genes involved in mitochondrial activity and biogenesis (citrate synthase, Nrf1, Nrf2), and fatty acid uptake (Cd36, Fatp4)”. The “rate of glucose uptake (3H-2DG)” value in [5] and in data set [8] was “no effect” each time. In [6] (1 μg/kg body weight injected with FFA-SS-Luc, vs vehicle), the “fatty acid uptake in skeletal muscle (luciferase activity)” value is “increased fatty acid uptake in skeletal muscle”. Further, the “time fatty acid uptake remained significantly elevated above vehicle” value in data set [6] (1 μg/kg body weight, after injection) is 10 min. In addition, the reported cytotoxic dose in data set [7] is given as 100 mg/kg body weight. Also, the “glucose uptake (3H-2DG)” value in data set [10] is given as “did not affect glucose uptake”. For the same molecule, in data set [11], the RER entry is on record as “significantly decreased”. Also, in data set [12], the ATP turnover entry was “did not affect”. Moreover, the “basal oxygen consumption rate (OCR)” value in data set [12] is reported as “increased”. In [12], the maximal uncoupled respiration result is “did increase”. Also, in data set [12], the respiratory capacity entry is recorded as “increased”.
